pKd, pKi: −log10 of the molar value. *1 amine or outer side, *2 acyl side, *3 side chain or, on linkers, in order; H or OH if unused. Where a SMILES comes first, the peptide text is derived from it. Bridges are numbered along the chain shown (N, C = ends). Roman numbers before positions name the chains, in order. [ ]: non-standard residue; d: D form. The star is where a group is joined. TATA = O=C(CC[*:1])N1CN(C(=O)CC[*:2])CN(C(=O)CC[*:3])C1; Dolaproine = CO[C@@H]([C@@H]1CCCN1)[C@@H](C)C(=O)O; Dil = CC[C@H](C)[C@H](NC)[C@@H](CC(=O)O)OC; X3 = O=C(CCCC(=O)[*:2])NCCC(=O)[*:1]; PABC = O=C(OCc1ccc(N[*:1])cc1)[*:2]; X4 = C[C@@H](N*)[C@@H](O)c1ccccc1; hArg = N=C(N)NCCCC[C@H](N)C(=O)O; Cit = NC(=O)NCCC[C@H](N)C(=O)O; NMeV = CN[C@H](C(=O)O)C(C)C; Sar = CNCC(=O)O
Columns and labels:
human Nectin-4 [1] = target: T1, human Nectin-4 (Homo sapiens, UniProt Q96NY8); assay: Nectin-4 Biacore SPR binding assay
T1 sequence (Q96NY8 32-349): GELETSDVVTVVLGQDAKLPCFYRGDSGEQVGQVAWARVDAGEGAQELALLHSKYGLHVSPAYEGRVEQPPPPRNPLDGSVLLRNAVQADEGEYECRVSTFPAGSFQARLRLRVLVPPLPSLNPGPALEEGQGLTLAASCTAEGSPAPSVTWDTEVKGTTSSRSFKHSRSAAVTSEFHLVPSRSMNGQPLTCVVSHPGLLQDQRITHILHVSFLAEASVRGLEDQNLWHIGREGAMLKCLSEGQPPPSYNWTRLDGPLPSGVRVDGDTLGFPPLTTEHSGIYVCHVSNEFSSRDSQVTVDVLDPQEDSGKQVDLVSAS
Protocol: Biacore experiments were performed to determine ka (M^−1 s^−1), kd (s^−1), KD (nM) values of monomeric peptides binding to human Necin-4 protein (obtained from Charles River).
Human Nectin-4 (residues Gly32-Ser349; NCBI RefSeq: NP_112178.2) with a gp67 signal sequence and C-terminal FLAG tag was cloned into pFastbac-1 and baculovirus made using standard Bac-to-Bac™ protocols (Life Technologies). Sf21 cells at 1×10^6 ml^−1 in Excell-420 medium (Sigma) at 27° C. were infected at an MOI of 2 with a P1 virus stock and the supernatant harvested at 72 hours. […] The protein was eluted with 100 μg/ml FLAG peptide. The eluted protein was concentrated to 2 ml and loaded onto an S-200 Superdex column (GE Healthcare) in PBS at 1 ml/min. 2 ml fractions were collected and the fractions containing Nectin-4 protein were concentrated to 16 mg/ml.
The protein was extensively desalted to remove uncoupled biotin using spin columns into PBS.
For analysis of peptide binding, a Biacore 3000 instrument was used utilising a CM5 chip (GE Healthcare). Streptavidin was immobilized on the chip using standard amine-coupling chemistry at 25° C. with HBS-N (10 mM HEPES, 0.15 M NaCl, pH 7.4) as the running buffer. Briefly, the carboxymethyl dextran surface was activated with a 7 minute injection of a 1:1 ratio of 0.4 M 1-ethyl-3-(3-dimethylaminopropyl) carbodiimide hydrochloride (EDC)/0.1 M N-hydroxy succinimide (NHS) at a flow rate of 10 μl/min. For capture of streptavidin, the protein was diluted to 0.2 mg/ml in 10 mM sodium acetate (pH 4.5) and captured by injecting 120 μl of streptavidin onto the activated chip surface. Residual activated groups were blocked with a 7 minute injection of 1 M ethanolamine (pH 8.5) and biotinylated Nectin-4 captured to a level of 1,200-1,800 RU. Buffer was changed to PBS/0.05% Tween 20 and a dilution series of the peptides was prepared in this buffer with a final DMSO concentration of 0.5%. The top peptide concentration was 100 nM with 6 further 2-fold dilutions. The SPR analysis was run at 25° C. at a flow rate of 50 μl/min with 60 seconds association and dissociation between 400 and 1,200 seconds depending upon the individual peptide. Data were corrected for DMSO excluded volume effects. All data were double-referenced for blank injections and reference surface using standard processing procedures and data processing and kinetic fitting were performed using Scrubber software, version 2.0c (BioLogic Software). Data were fitted using simple 1:1 binding model allowing for mass transport effects where appropriate.

HT-1376 xenograft = assay: Example 2: in vivo efficacy in HT-1376 xenograft (bladder cancer model) in CB17-SCID mice; conditions: 1 mg/kg
human Nectin-4 [2] = target: T2, human Nectin-4 (Homo sapiens, UniProt Q96NY8); assay: Nectin-4 direct binding assay (fluorescence polarisation); conditions: fluorescently tagged peptide, TATA scaffold
T2 sequence (Q96NY8 32-510): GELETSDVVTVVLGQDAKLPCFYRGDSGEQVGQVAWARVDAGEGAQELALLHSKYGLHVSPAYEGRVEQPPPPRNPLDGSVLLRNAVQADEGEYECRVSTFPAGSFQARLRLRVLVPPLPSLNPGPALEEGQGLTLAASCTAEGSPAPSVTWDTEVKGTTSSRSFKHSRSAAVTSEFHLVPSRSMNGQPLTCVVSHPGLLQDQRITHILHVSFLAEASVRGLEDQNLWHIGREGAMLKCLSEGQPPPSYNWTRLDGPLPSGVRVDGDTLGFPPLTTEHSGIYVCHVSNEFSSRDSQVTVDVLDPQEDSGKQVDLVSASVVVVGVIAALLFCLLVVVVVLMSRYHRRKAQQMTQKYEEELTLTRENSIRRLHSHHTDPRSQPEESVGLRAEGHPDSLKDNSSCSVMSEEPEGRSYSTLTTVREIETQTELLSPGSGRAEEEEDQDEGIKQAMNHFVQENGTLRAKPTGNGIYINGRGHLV
Protocol: Affinity of the peptides of the invention for human Nectin-4 (Ki) was determined using a fluorescence polarisation assay, in accordance with the methods disclosed in WO 2016/067035. Peptides of the invention with a fluorescent tag (either fluorescein, SIGMA or Alexa Fluor488™, Fisher Scientific) were diluted to 2.5 nM in PBS with 0.01% tween 20 or 50 mM HEPES with 100 mM NaCl and 0.01% tween pH 7.4 (both referred to as assay buffer). This was combined with a titration of protein in the same assay buffer as the peptide to give 1 nM peptide in a total volume of 25 μL in a black walled and bottomed low bind low volume 384 well plates, typically 5 μL assay buffer, 10 μL protein then 10 μL fluorescent peptide. […] Measurements were conducted on a BMG PHERAstar FS equipped with an “FP 485 520 520” optic module which excites at 485 nm and detects parallel and perpendicular emission at 520 nm. The PHERAstar FS was set at 25° C. with 200 flashes per well and a positioning delay of 0.1 second, with each well measured at 5 to 10 minute intervals for 60 minutes. The gain used for analysis was determined for each tracer at the end of the 60 minutes where there was no protein in the well. Data was analysed using Systat Sigmaplot version 12.0. mP values were fit to a user defined quadratic equation to generate a Kd value: f=ymin+(ymax−ymin)/Lig*((x+Lig+Kd)/2-sqrt((((x+Lig+Kd)/2)^2)−(Lig*x))). […]

human Nectin-4 [3] = target: T2, human Nectin-4; assay: Nectin-4 competition binding assay (fluorescence polarisation); conditions: competition with fluorescent peptide SEQ ID NO: 217; read-out: Ki
How it was run: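 Ki derived by cubic-equation fit of mP data, with tracer peptide concentration, its Kd and Nectin-4 level as fixed inputs. Competition set up by adding 2-fold peptide dilutions (≤5% DMSO), then Nectin-4, then fluorescent peptide; polarisation measured as for direct binding.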

| Structure (SMILES) | pKd (human Nectin-4 [1]) | bodyweight (in words) (HT-1376 xenograft) | pKi (human Nectin-4 [2]) | pKi (human Nectin-4 [3]) |
| --- | --- | --- | --- | --- |
| CC[C@H](C)[C@@H]([C@@H](CC(=O)N1CCC[C@H]1[C@H](OC)[C@@H](C)C(=O)N[C@H](C)[C@@H](O)c1ccccc1)OC)N(C)C(=O)[C@@H](NC(=O)[C@H](C(C)C)N(C)C(=O)OCc1ccc(NC(=O)[C@H](CCCNC(N)=O)NC(=O)[C@@H](NC(=O)CCCC(=O)NCCC(=O)N(C)CC(=O)N(C)CC(=O)N(C)CC(=O)N(C)CC(=O)N(C)CC(=O)N(C)CC(=O)N(C)CC(=O)N(C)CC(=O)N(C)CC(=O)N(C)CC(=O)N[C@H]2CSCCC(=O)N3CN4CN(C3)C(=O)CCSC[C@H](NC(=O)[C@@H](CC(=O)O)NC(=O)[C@H](Cc3ccccc3)NC(=O)[C@@H]3CCCN3C2=O)C(=O)N[C@@H](CCSC)C(=O)N[C@@H](CCCCNC(=N)N)C(=O)N[C@@H](CC(N)=O)C(=O)N[C@@H](Cc2c[nH]c3ccccc23)C(=O)N[C@@H](CO)C(=O)N[C@@H]([C@@H](C)O)C(=O)N2CCC[C@H]2C(=O)N[C@@H]([C@@H](C)CC)C(=O)N[C@@H](Cc2c[nH]c3ccccc23)C(=O)N[C@H](C(N)=O)CSCCC4=O)C(C)C)cc1)C(C)C [BCY7825, MMAE-PABC-Cit-Val-Glutaryl-BCY7814] (I: [Sar][Sar][Sar][Sar][Sar][Sar][Sar][Sar][Sar][Sar]CPF[dD]CM[hArg]NWSTPIWC-NH2 / II: V[Cit][PABC][NMeV]V[Dil][Dolaproine]-X4; linker I:11-I:15-I:25 via TATA; linker I:N-II:N via X3) | 7.94 | maintained the bodyweight well | – | – |
| CC[C@H](C)[C@@H]1NC(=O)[C@H](CCCNC(=N)N)NC(=O)[C@H](CC(N)=O)NC(=O)[C@@H]2CSCCC(=O)N3CN(CN(C3)C(=O)CCSC[C@@H](C(=O)N[C@@H](C)C(N)=O)NC1=O)C(=O)CCSC[C@H](NC(=O)[C@H](Cc1c[nH]c3ccccc13)NC(=O)[C@H](CCCCN)NC(=O)[C@@H](N)CCC(N)=O)C(=O)N[C@@H](C)C(=O)N1CCC[C@H]1C(=O)N[C@@H](CC(C)C)C(=O)N[C@@H](CO)C(=O)N[C@@H](CC(=O)O)C(=O)N[C@@H](Cc1ccc(O)cc1)C(=O)N[C@@H](Cc1c[nH]c3ccccc13)C(=O)N2 [BCY3400, QKW-(SEQ ID NO: 34)-A] (H-QKWCAPLSDYWCNRICA-NH2; linker 4-12-16 via TATA; N-terminus and C-terminus assumed) | – | – | 7.14 | 7.33 |
| CC[C@H](C)[C@@H]1NC(=O)[C@H](CCCNC(=N)N)NC(=O)[C@H](CC(=O)O)NC(=O)[C@@H]2CSCCC(=O)N3CN(CN(C3)C(=O)CCSC[C@@H](C(=O)N[C@@H](C)C(N)=O)NC1=O)C(=O)CCSC[C@H](NC(=O)[C@H](Cc1c[nH]c3ccccc13)NC(=O)[C@H](CC(=O)O)NC(=O)[C@@H](N)C(C)C)C(=O)N[C@@H](C)C(=O)N1CCC[C@H]1C(=O)N[C@@H](CC(C)C)C(=O)N[C@@H](CC(=O)O)C(=O)N[C@@H](CC(=O)O)C(=O)N[C@@H](Cc1ccc(O)cc1)C(=O)N[C@@H](Cc1c[nH]c3ccccc13)C(=O)N2 [BCY462, VDW-(SEQ ID NO: 33)-A] (H-VDWCAPLDDYWCDRICA-NH2; linker 4-12-16 via TATA; N-terminus and C-terminus assumed) | – | – | 6.57 | – |
